In patent US20100152301A1, “Treatment of Viral Infections” (GOVERNMENT OF THE US, AS REPRESENTED BY THE SECRETARY, …, priority 2005, published 2010):

Legend:
HIV-1 integrase [1] = biological target: T1, HIV-1 integrase (Human immunodeficiency virus type 1 group M subtype B, UniProt P04585); experiment: Integrase catalytic assay, 3′-processing (3′-P), 21 bp duplex substrate; type: biochemical; settings: for IC50: In vitro IC50 21 bp substrate 3′-P; for inhibition at 333 µM: drug concentration of 333 μM
T1 construct: Expression and purification of the recombinant HIV-1 integrase in Escherichia coli; made in house; host or cells: Escherichia coli
Protocol: (§1) Recombinant HIV integrase and oligonucleotide substrates. Expression and purification of the recombinant HIV-1 integrase in Escherichia coli were performed according to (Leh et al., 2000; Marchand et al., 2001) with addition of 10% glycerol to all buffers. The preparation of the Q148C/SSS-mutant integrase will be described elsewhere (Johnson et al., 2005). The oligonucleotide substrates, except those used for the disulfide crosslinking (FIG. 5A), were purchased from Integrated DNA Technologies, Inc. (Coraville, Iowa) and purified by polyacrylamide gel. The single-stranded oligonucleotides were 5′-end labeled with [γ^32P]-ATP (Perkin Elmer, Wellesley, M A) and T4 polynucleotide kinase (New England BioLabs, Ipswich, M A). Unincorporated nucleotide was removed using mini Quick Spin Oligo columns (Roche Diagnostics, Indianapolis, Ind.). Substrates were obtained after annealing with complementary non-labeled oligonucleotides. The thiol-modified substrate (FIG. 5A) for disulfide crosslinking assay was synthesized as essentially described by W. Santos and G. Verdine (Department of Chemistry and Chemical Biology, Harvard University, Cambridge, Mass.) (They and Verdine, 2002).
(§2) Integrase catalytic assays. Reactions were performed in 10 μl with 300 nM of recombinant IN, 20 nM of the 5′-end [^32P]-labeled oligonucleotide substrates and inhibitors at the indicated concentrations. 10% DMSO was included in controls. Reactions were incubated for 40 min at 37° C. in a buffer containing a final concentration of 25 mM MOPS, pH 7.2, 25 mM NaCl, 14.3 mM β-mercaptoethanol and 7.5 mM of divalent cations (MgCl2 or MnCl2 as indicated). Reactions were stopped by addition of 20 μl loading dye (10 mM EDTA, 98% deionized formamide, 0.025% xylene cyanol and 0.025% bromophenol blue). Reactions were heated at 95° C. for 1 min before electrophoresis in 20% polyacrylamide-7 M urea gels. Gels were dried and reaction products were visualized and quantitated with a Molecular Dynamics PhosphorImager (Sunnyvale, Calif.). Densitometric analyses were performed using ImageQuant from the Molecular Dynamics software. The concentrations at which enzyme activity was reduced by 50% (IC50), was determined using “Prism” software (GraphPad Software, San Diego, Calif.) for nonlinear regression to fit dose-response data to logistic curve models.

HIV-1 integrase [2] = biological target: T1, HIV-1 integrase; experiment: Integrase catalytic assay, strand transfer (ST), 21 bp duplex substrate; type: biochemical; settings: for inhibition activity, ST, 21 bp substrate: drug concentration of 333 μM; for inhibition at 333 µM: read-out: inhibition activity, ST, 21 bp substrate
Protocol: as §1, §2

HIV-1 integrase [3] = biological target: T1, HIV-1 integrase; experiment: Strand transfer assay with preprocessed (19/21) DNA substrate; type: biochemical; settings: for IC50: In vitro IC50 Preprocessed substrate; for inhibition at 333 µM: drug concentration of 333 μM
Protocol: as §1, §2

HIV-1 integrase [4] = biological target: T1, HIV-1 integrase; experiment: Disintegration assay with Y-oligomer substrate; type: biochemical; settings: for IC50: In vitro IC50 Disintegration; for inhibition activity, disintegration: drug concentration of 333 μM; for inhibition at 333 µM: read-out: inhibition activity, disintegration
Protocol: as §1, §2

[5] = biological target: T2, Q148C/SSS-mutant integrase (Human immunodeficiency virus type 1 group M subtype B, UniProt P04585, C1203S/C1212S/C1427S/Q1295C); experiment: biochemical; type: binding, HIV-1; settings: drug 1 mM; Mg2+ or Mn2+ (FIG. 5B)
T2 construct: 10 μM recombinant Q148C/SSS-mutant integrase was incubated with 10 μM DNA substrate; made in house
Protocol: Briefly, 10 μM recombinant Q148C/SSS-mutant integrase was incubated with 10 μM DNA substrate (FIG. 5A) containing tethered thiols in the presence of 20 mM Tris, pH 7.4, 10% glycerol and 7.5 mM of divalent cations (MgCl2 or MnCl2 as indicated) for 20 min at 37° C. Reactions were stopped by the addition of 20 mM methylmethanethiosulfonate (capping reagent). Non-reducing gel loading buffer (100 mM Tris-HCl, pH 6.8, 4% SDS, 0.2% bromophenol blue, 20% glycerol) was added and samples were heated at 95° C. before loading onto 16% tricine gels (Invitrogen, Carlsbad, Calif.). Gels were stained with Microwave Blue according to manufacturer's recommendations (Protiga, Frederick, Md.).
DNA (20 nM) containing a [5′-^32P]-label on one strand and a thiol-modified cytosine on the other strand was added and reactions were capped with methylmethanethiosulfonate at 1 minute. Following capping, non-reducing gel loading buffer (100 mM Tris-HCl, pH 6.8, 4% SDS, 0.2% bromophenol blue, 20% glycerol) was added and samples were directly loaded on 16% tricine gels (Invitrogen, Carlsbad, Calif.). Gels were dried and reaction products were quantitated using the same way as described above.

[6] = read-out: inhibition activity, 3′-P, 21 bp substrate, Mg2+
[7] = read-out: inhibition activity, 3′-P, 21 bp substrate, Mn2+
[8] = In vitro IC50 21 bp substrate ST, Mg2+
[9] = In vitro IC50 21 bp substrate ST, Mn2+
[10] = Mn2+ as cofactor, U5 LTR DNA substrate
[11] = read-out: inhibition activity, preprocessed substrate, Mg2+
[12] = read-out: inhibition activity, preprocessed substrate, Mn2+

Compound | IC50 (HIV-1 integrase [1]; Mg2+) [µM] | IC50 (HIV-1 integrase [1]; Mn2+) [µM] | inhibition at 333 µM (HIV-1 integrase [1]; [6]) [%] | inhibition at 333 µM (HIV-1 integrase [1]; [7]) [%] | IC50 (HIV-1 integrase [2]; [8]) [µM] | IC50 (HIV-1 integrase [2]; [9]) [µM] | potency against HIV-1 integrase relative to the minimal tropolone core (HIV-1 integrase [2]; [10]) | inhibition activity, ST, 21 bp substrate (HIV-1 integrase [2]; Mn2+) | inhibition at 333 µM (HIV-1 integrase [2]) [%] | IC50 (HIV-1 integrase [3]; Mg2+) [µM] | IC50 (HIV-1 integrase [3]; Mn2+) [µM] | inhibition at 333 µM (HIV-1 integrase [3]; [11]) [%] | inhibition at 333 µM (HIV-1 integrase [3]; [12]) [%] | IC50 (HIV-1 integrase [4]; Mg2+) [µM] | IC50 (HIV-1 integrase [4]; Mn2+) [µM] | inhibition activity, disintegration (HIV-1 integrase [4]; Mn2+) | inhibition at 333 µM (HIV-1 integrase [4]) [%] | inhibition of integrase-DNA disulfide-crosslinking (in words) [5] | IC50 (HIV-1 integrase [2]; IC50, inhibition of HIV-1 integrase (first screen), Mn2+ as cofactor, U5 LTR DNA substrate, 3′-P or ST not specified) [µM]
CC(C)c1cccc(=O)c(O)c1 [NSC 18804, β-thujaplicin] | > 333 | > 333 | 20 to 40 | 20 to 40 | > 333 | > 333 | failed to increase potency | 2 (5% < inhibition activity < 20%) | 5 to 20 | > 333 | > 333 | 5 to 20 | 5 to 20 | > 333 | > 333 | 1 (inhibition activity ≦ 5%) | < 5 | lack of inhibition | –
CC(C)c1ccccc(=O)c1O [NSC 18805, α-thujaplicin] | > 333 | > 333 | 5 to 20 | 5 to 20 | > 333 | > 333 | failed to increase potency | 1 (inhibition activity ≦ 5%) | < 5 | > 333 | > 333 | < 5 | < 5 | > 333 | > 333 | 1 (inhibition activity ≦ 5%) | < 5 | – | –
CC(C)c1ccc(O)c(=O)cc1 [NSC 43338, γ-thujaplicin] | > 333 | > 333 | < 5 | < 5 | > 333 | > 333 | failed to increase potency | 1 (inhibition activity ≦ 5%) | < 5 | > 333 | > 333 | < 5 | < 5 | > 333 | > 333 | 1 (inhibition activity ≦ 5%) | < 5 | – | –
CC(C)=CCc1ccc(=O)c(O)cc1C(C)C [NSC 43339, nootkatin] | > 333 | > 333 | 5 to 20 | 5 to 20 | > 333 | > 333 | failed to increase potency | 3 (20% < inhibition activity < 40% at drug concentration of 333 μM) | 20 to 40 | > 333 | > 333 | 5 to 20 | 20 to 40 | > 333 | > 333 | 1 (inhibition activity ≦ 5%) | < 5 | – | –
O=c1cccccc1O [NSC 89303, tropolone] | > 333 | > 333 | < 5 | 5 to 20 | > 333 | > 333 | – | 3 (20% < inhibition activity < 40% at drug concentration of 333 μM) | 20 to 40 | > 333 | > 333 | 5 to 20 | 5 to 20 | > 333 | > 333 | 1 (inhibition activity ≦ 5%) | < 5 | – | > 333
C=C(C)C1CCc2c(c(C)cc(O)c(=O)c2O)C1 (stereo not drawn) [NSC 310618, manicol] | 182 ± 42.5 | 20.2 | – | – | 71.1 ± 3.8 | 11.7 ± 5.2 | – | – | – | > 333 | 25.8 | 20 to 40 | – | > 333 | 98.3 | – | 5 to 20 | – | –
